Experimental data taken from patent US20140357512A1, “HISTONE DEACETYLASE (HDAC) BIOMARKERS IN MULTIPLE MYELOMA” (priority 2013, published 2014).

Test system: human myeloma cell line MM.1S
Assay: SILAC acetylated-lysine peptide profiling, HDAC inhibitor vs DMSO (light/heavy ratio)
Type: cell-based
From the text: An embodiment of the invention comprises utilizing the SILAC method in order to quantitate changes in protein expression between two or more populations of cells. The SILAC method is a technique based on mass spectrometry that detects differences in protein abundance among samples using non-radioactive isotopic labeling. The SILAC method is known in the art, and described in detail in Ong et al., “Stable Isotope Labeling by Amino Acids in Cell Culture, SILAC, as a Simple and Accurate Approach to Expression Proteomics”, Molecular & Cellular Proteomics, vol. 1, pp. 376-386 (2002), which is incorporated herein by reference in its entirety.
Briefly, the SILAC method involves growing two populations of cells in cell culture. The first population of cells is grown in growth media containing normal amino acids (“normal media”). The second population of cells is grown in media lacking a standard essential amino acid (such as lysine), but is then supplemented with a non-radioactive, isotopically labeled form of that essential amino acid (such as lysine labeled with ^13C atoms, rather than normal ^12C atoms), which is called “heavy media”. When the two populations of cells are each growing in the medium, they incorporate the amino acids into all of their proteins. The growth of cells maintained in the heavy media is no different from that in normal media. All peptides containing the heavy amino acids are heavier than their normal counterparts. The cells from each of the two populations of cells are lysed. The lysates from each of the two cell populations are then combined. The combined cell lysates are then analyzed by mass spectrometry. Pairs of chemically identical peptides of different stable isotope composition can be differentiated in a mass spectrometer due to their difference in mass. The ratio of peak intensities in the mass spectrum for such peptide pairs reflects the abundance ratio for the two proteins.
This example describes SILAC studies that were performed to compare the effects of three different HDAC inhibitors (Compound A, Compound B, and tubastatin A) to a control on a human multiple myeloma cell line. The HDAC inhibitors were also compared amongst themselves to determine differences in their effects.
A human myeloma cell line MM.1S was grown using either ^12C (light) or ^13C (heavy) lysine containing culture medium. The “heavy” cells were treated with DMSO as the control, and the “light” cells were treated with a single HDAC inhibitor at 37° C. for 6 hours. The heavy and light cells were lysed, and the lysates were mixed in 1:1 ratio and digested with the protease trypsin. The acetylated lysine containing peptides (due to the action of the HDAC inhibitor) in the digested peptide pool were captured by a non-specific anti-acetylated lysine antibody cocktail (the antibodies identify both light and heavy acetylated peptides), and subjected to mass spectrometry analysis in order to identify thousands of individual peptides.
Thousands of peptides were identified in pairs (^12C and ^13C) due to their known mass differences. The amino acid sequence and quantitative ratio (Light/Heavy) of a given peptide in two differentially treated cell lysates were then determined and annotated with their possible protein (gene) sources.
As stated above, three HDAC inhibitors (Compound A, Compound B, and Tubastatin A) were used. Thus, the SILAC method was performed three times, with a different HDAC inhibitor compared to a control each time. Accordingly, there are three pairs of quantitative data in the table below, i.e., Compound A:DMSO, Compound B:DMSO, and Tubastatin A:DMSO. A cut-off of 1.30 fold of change (increase or decrease) was then used to determine “changed” or “+” in the table, and any peptides with a fold of change less than 1.3 fold were determined to be “unchanged” or “0” in the table. Those peptides that were not identified were marked as “NA” in the table. […]

O=C(NO)c1cnc(NC2(c3cccc(F)c3)CCCCC2)nc1 [Compound B, 2-((1-(3-fluorophenyl)cyclohexyl)amino)-N-hydroxypyrimidine-5-carboxamide]
−1.00 log 2: L/H ratio of acetylated peptide (FQAK(ac)[…] (SEQ ID NO: 415), Microtubule-associated protein RP/EB family member 1 [66], MAPRE1)
−0.57 log 2: L/H ratio of acetylated peptide (GYGFGLIK(ac)LDLK (SEQ ID NO: 465), Voltage-dependent anion-selective channel protein 1 [28], VDAC1)
−0.40: L/H ratio of acetylated peptide EPVAVLK(ac)ANR (SEQ ID NO: 9) (HEXB [161], log 2 scale, drug vs DMSO)
0.00 log 2: light to heavy ratio (L/H ratio) of acetylated peptide AVDLIQK(ac)HK (SEQ ID NO: 546) (Flap endonuclease 1 [252], gene FEN1, inhibitor:DMSO) | light to heavy ratio (L/H ratio) of acetylated peptide (ac)[…](ac)PGECLR (SEQ ID NO: 575) (Galectin-1 [13], gene LGALS1, inhibitor:DMSO) | light to heavy ratio (L/H ratio) of acetylated peptide ISGASEK(ac)[…] (SEQ ID NO: 543) (Glutamate dehydrogenase 1 mitochondrial [503], gene GLUD1, inhibitor:DMSO) | light to heavy ratio (L/H ratio) of acetylated peptide […](ac)YDNSLK (SEQ ID NO: 620) (Glyceraldehyde-3-phosphate dehydrogenase [139], gene GAPDH, inhibitor:DMSO) | light to heavy ratio (L/H ratio) of acetylated peptide VVK(ac)QASEGPLK (SEQ ID NO: 597) (Glyceraldehyde-3-phosphate dehydrogenase [263], gene GAPDH, inhibitor:DMSO) | light to heavy ratio (L/H ratio) of acetylated peptide AHLQK(ac)LMSDK (SEQ ID NO: 549) (Glycyl-tRNA synthetase [224], gene GARS, inhibitor:DMSO) | light to heavy ratio (L/H ratio) of acetylated peptide FSPDDK(ac)YSR (SEQ ID NO: 504) (H/ACA ribonucleoprotein complex subunit 3 [40], gene NOP10, inhibitor:DMSO)
0.69 log 2: L/H ratio of acetylated peptide (GLAPQNK(ac)PELQK (SEQ ID NO: 393), Isoform 2 of Protein FAM107B [225], FAM107B)
0.00: light to heavy ratio (L/H ratio) of acetylated peptide, log 2 scale (FLNAENAQK(ac)FK (SEQ ID NO: 200), Ran-specific GTPase-activating protein [150], RANBP1) | light to heavy ratio (L/H ratio) of acetylated peptide, log 2 scale (FNQK(ac)GEVYK (SEQ ID NO: 149), Lipoamide acyltransferase component of branched-chain alpha-keto acid dehydrogenase complex mitochondrial [435], DBT) | light to heavy ratio (L/H ratio) of acetylated peptide, log 2 scale (FPHSAHQK(ac)YVR (SEQ ID NO: 253), Ribosomal protein L14 variant [71], RPL14) | light to heavy ratio (L/H ratio) of acetylated peptide, log 2 scale (FWNK(ac)FLENK (SEQ ID NO: 187), NADH dehydrogenase [ubiquinone] 1 beta subcomplex subunit 6 [49], NDUFB6) | light to heavy ratio (L/H ratio), log 2 scale, acetylated peptide GGVVGIK(ac)VDK (SEQ ID NO: 774) (Fructose-bisphosphate aldolase A [108], gene ALDOA, drug:DMSO) | L/H ratio of acetylated peptide ASGLAAGK(ac)GVIVAK (SEQ ID NO: 37) (GART [156], log 2 scale, drug vs DMSO) | light to heavy ratio (L/H ratio) of acetylated peptide, log 2 scale (GDASK(ac)EDIDTAMK (SEQ ID NO: 161), Isoform 1 of Hydroxyacyl-coenzyme A dehydrogenase mitochondrial [241], HADH) | light to heavy ratio (L/H ratio) of acetylated peptide, log 2 scale (GDGTGGK(ac)SIYGER (SEQ ID NO: 196), Peptidyl-prolyl cis-trans isomerase B [116], PPIB) | light to heavy ratio (L/H ratio) of acetylated peptide, log 2 scale (GFGGK(ac)YGVER (SEQ ID NO: 162), Hematopoietic lineage cell-specific protein [123], HCLS1) | light to heavy ratio (L/H ratio) of acetylated peptide, log 2 scale (GIVK(ac)DIIHDPGR (SEQ ID NO: 207), 60S ribosomal protein L8 [46], RPL8) | light to heavy ratio (L/H ratio) of acetylated peptide, log 2 scale (GLFIIDDK(ac)GILR (SEQ ID NO: 197), Peroxiredoxin-1 [136], PRDX1) | L/H ratio of acetylated peptide LVK(ac)VWNLANCK (SEQ ID NO: 39) (GNB2L1 [175], log 2 scale, drug vs DMSO) | L/H ratio of acetylated peptide IIVDELK(ac)QEVISTSSK (SEQ ID NO: 38) (GNB2L1 [271], log 2 scale, drug vs DMSO) | L/H ratio of acetylated peptide (ac)AHYNFK(ac)K (SEQ ID NO: 40) (GTPBP4 [7], log 2 scale, drug vs DMSO) | light to heavy ratio (L/H ratio) of acetylated peptide, log 2 scale (GYLTK(ac)EDLR (SEQ ID NO: 216), Protein S100-A10 [28], S100A10) | light to heavy ratio (L/H ratio), log 2 scale, acetylated peptide LLLLGAGESGK(ac)STIVK (SEQ ID NO: 769) (Guanine nucleotide-binding protein G(olf) subunit alpha [55], gene GNAL, drug:DMSO) | L/H ratio of acetylated peptide GQQQVFK(ac)GLNDK (SEQ ID NO: 41) (HADHA [406], log 2 scale, drug vs DMSO)
−0.42 log 2: L/H ratio of acetylated peptide (GK(ac)LEEQRPER (SEQ ID NO: 459), Tumor protein translationally-controlled 1 [102], TPT1)
0.95: L/H ratio of acetylated peptide AGGK(ac)AGK(ac)DSGK (SEQ ID NO: 15) (H2AFV [5:8], log 2 scale, drug vs DMSO)
1.00 log 2: L/H ratio of acetylated peptide (GK(ac)YMLVR (SEQ ID NO: 377), Carbohydrate sulfotransferase 1 [296], CHST1)
−0.41 log 2: L/H ratio of acetylated peptide (GNTPK(ac)[…] (SEQ ID NO: 449), Nucleolar protein 56 [347], SNORD110, SNORD86, NOP56)
